Test system: not listed separately
Test: in vivo lowering of plasma triglycerides and cholesterol
Conditions: dose of 5 mg/kg p.o.
From the text: (§1) The corresponding relevant subject matter of said PCT application is herewith incorporated by reference into the present specification.

For `COC(=O)N1CCN([C@@H]2Cc3ccc(NC(=O)c4cccc(C)c4-c4ccc(C(F)(F)F)cc4)cc3C2)CC1` [Example 14, (R)-6-Methyl-4′-trifluoromethyl-1,1′-biphenyl-N-[2-[4-(methoxycarbonyl)-piperazino]indan-5-yl]-2-carboxamide], the plasma cholesterol was “lowers”.

With `COC(=O)N1CCN([C@@H]2Cc3ccc(NC(=O)c4cccc(C)c4-c4ccc(C(F)(F)F)cc4)cc3C2)CC1` [Example 14, (R)-6-Methyl-4′-trifluoromethyl-1,1′-biphenyl-N-[2-[4-(methoxycarbonyl)-piperazino]indan-5-yl]-2-carboxamide] the plasma triglycerides was “lowers”.

Test system: apolipoprotein B (apo B) secretion
Test: apo B assay
Type: cell-based
Conditions: not given
From the text: as §1

In the case of `COC(=O)N1CCN([C@@H]2Cc3ccc(NC(=O)c4cccc(C)c4-c4ccc(C(F)(F)F)cc4)cc3C2)CC1` [Example 14, (R)-6-Methyl-4′-trifluoromethyl-1,1′-biphenyl-N-[2-[4-(methoxycarbonyl)-piperazino]indan-5-yl]-2-carboxamide], the IC50 is reported as ~2 nM.

Target: microsomal triglyceride transfer protein (MTP) (Homo sapiens, UniProt P55157)
Test: MTP assay
Type: biochemical
Conditions: not given
From the text: as §1

microsomal triglyceride transfer protein (MTP), sequence (P55157 19-894, species assumed): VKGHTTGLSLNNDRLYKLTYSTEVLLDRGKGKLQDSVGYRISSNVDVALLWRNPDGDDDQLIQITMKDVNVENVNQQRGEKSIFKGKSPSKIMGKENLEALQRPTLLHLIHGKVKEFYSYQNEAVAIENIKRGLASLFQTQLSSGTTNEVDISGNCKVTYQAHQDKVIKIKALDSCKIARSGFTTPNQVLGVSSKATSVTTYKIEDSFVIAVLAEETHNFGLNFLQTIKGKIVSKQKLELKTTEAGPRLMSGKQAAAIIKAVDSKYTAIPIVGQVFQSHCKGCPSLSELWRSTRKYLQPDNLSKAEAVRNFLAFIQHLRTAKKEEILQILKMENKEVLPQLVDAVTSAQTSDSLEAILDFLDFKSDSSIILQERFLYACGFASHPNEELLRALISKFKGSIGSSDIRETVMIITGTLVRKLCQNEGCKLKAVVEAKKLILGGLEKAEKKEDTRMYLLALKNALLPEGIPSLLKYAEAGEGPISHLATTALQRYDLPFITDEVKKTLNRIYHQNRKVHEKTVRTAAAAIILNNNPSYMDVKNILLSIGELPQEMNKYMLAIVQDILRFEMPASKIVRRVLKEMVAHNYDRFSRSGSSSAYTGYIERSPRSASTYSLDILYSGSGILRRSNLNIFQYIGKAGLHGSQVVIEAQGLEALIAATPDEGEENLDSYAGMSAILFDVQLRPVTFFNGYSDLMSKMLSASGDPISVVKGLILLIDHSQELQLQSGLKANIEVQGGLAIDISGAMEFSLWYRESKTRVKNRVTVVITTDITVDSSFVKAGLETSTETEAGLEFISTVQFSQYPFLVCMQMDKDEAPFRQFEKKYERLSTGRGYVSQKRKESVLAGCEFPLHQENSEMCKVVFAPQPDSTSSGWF
microsomal triglyceride transfer protein (MTP), sequence (P07237 18-508 partner, species assumed): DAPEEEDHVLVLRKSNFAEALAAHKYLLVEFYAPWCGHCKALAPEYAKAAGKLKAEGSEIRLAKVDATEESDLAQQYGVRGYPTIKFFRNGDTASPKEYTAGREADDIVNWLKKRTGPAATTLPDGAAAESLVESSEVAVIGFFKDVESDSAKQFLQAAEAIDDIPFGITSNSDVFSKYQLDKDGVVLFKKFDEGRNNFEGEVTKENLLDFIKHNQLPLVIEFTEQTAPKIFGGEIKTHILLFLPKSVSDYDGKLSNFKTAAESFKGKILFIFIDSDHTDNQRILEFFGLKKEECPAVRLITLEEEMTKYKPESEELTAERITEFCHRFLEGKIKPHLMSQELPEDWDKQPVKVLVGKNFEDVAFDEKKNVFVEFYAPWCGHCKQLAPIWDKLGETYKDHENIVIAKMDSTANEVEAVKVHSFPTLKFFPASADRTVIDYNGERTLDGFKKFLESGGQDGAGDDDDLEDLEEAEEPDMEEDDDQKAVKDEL

With `COC(=O)N1CCN([C@@H]2Cc3ccc(NC(=O)c4cccc(C)c4-c4ccc(C(F)(F)F)cc4)cc3C2)CC1` [Example 14, (R)-6-Methyl-4′-trifluoromethyl-1,1′-biphenyl-N-[2-[4-(methoxycarbonyl)-piperazino]indan-5-yl]-2-carboxamide] the IC50 was ~40 nM.

Test system: not given
Test: not given
Conditions: not given

First: Cc1ccc(S(=O)(=O)N2CCN(C3Cc4ccc(NC(=O)c5cccc(C)c5-c5ccc(C(F)(F)F)cc5)cc4C3)CC2)cc1 (stereo not drawn) [Example 23]
Second: Cc1cccc(C(=O)Nc2ccc3c(c2)CC(N2CCN(S(C)(=O)=O)CC2)C3)c1-c1ccc(C(F)(F)F)cc1 (stereo not drawn) [Example 24]
The melting point of the first is lower: 153 to 154 °C for the first, 205 to 208 °C for the second.

First: COC(=O)N1CCN(C2Cc3ccc(NC(=O)c4cccc(C(F)(F)F)c4-c4ccc(C(F)(F)F)cc4)cc3C2)CC1 (stereo not drawn) [Example 5]
Second: CC(=O)N1CCN(C2Cc3ccc(NC(=O)c4cccc(C(F)(F)F)c4-c4ccc(C(F)(F)F)cc4)cc3C2)CC1 (stereo not drawn) [Example 22]
The melting point of the first is higher: 210 to 212 °C for the first, 184 to 186 °C for the second.

`Cc1cccc(C(=O)Nc2ccc3c(c2)CC(N2CCN(Cc4ccccn4)CC2)C3)c1-c1ccc(C(F)(F)F)cc1` (stereo not drawn) [Example 31, 6-methyl-4′-trifluoromethyl-1,1′-biphenyl-N-[2-[4-(2-pyridinylmethyl)piperazino]indan-5-yl]-2-carboxamide] and `Cc1cccc(C(=O)Nc2ccc3c(c2)CC(N2CCN(Cc4ccccc4)CC2)C3)c1-c1ccc(C(F)(F)F)cc1` (stereo not drawn) [Example 4] cannot be ordered by melting point: 190 to 194 °C for the first, 188 to 191 °C for the second.

First: Cc1cccc(C(=O)Nc2ccc3c(c2)CC(N2CCOCC2)C3)c1-c1ccc(C(F)(F)F)cc1 (stereo not drawn) [Example 7]
Second: Cc1cccc(C(=O)Nc2ccc3c(c2)CC(N2CCN(C)CC2)C3)c1-c1ccc(C(F)(F)F)cc1 (stereo not drawn) [Example 3]
The melting point of the first is lower: 201 to 204 °C for the first, 209 to 210 °C for the second.

Compared with `COC1CCN(C2Cc3ccc(NC(=O)c4cccc(C)c4-c4ccc(C(F)(F)F)cc4)cc3C2)CC1` (stereo not drawn) [Example 10], `Cc1cccc(C(=O)Nc2ccc3c(c2)CC(N2CCC(C)CC2)C3)c1-c1ccc(C(F)(F)F)cc1` (stereo not drawn) [Example 12] is higher in melting point: 197 to 199 °C for the first, 219 to 221 °C for the second.

First: Cc1cccc(C(=O)Nc2ccc3c(c2)CC(N2CCN(C(=O)N(C)C)CC2)C3)c1-c1ccc(C(F)(F)F)cc1 (stereo not drawn) [Example 27]
Second: COC(=O)N1CCN(C2Cc3ccc(NC(=O)c4cccc(C)c4-c4ccc(C(F)(F)F)cc4)cc3C2)CC1 (racemic) [Example 1, 6-Methyl-4′-trifluoromethyl-1,1′-biphenyl-N-[2[4-(methoxycarbonyl)-piperazino]-indan-5-yl]-2-carboxamide]
The melting point of the first is higher: 217 to 218 °C for the first, 161 to 163 °C for the second.

First: Cc1cccc(C(=O)Nc2ccc3c(c2)CC(N2CCN(C(=O)COCc4ccccc4)CC2)C3)c1-c1ccc(C(F)(F)F)cc1 (stereo not drawn) [Example 29]
Second: Cc1cccc(C(=O)Nc2ccc3c(c2)CC(N2CCN(C(=O)c4ccccc4)CC2)C3)c1-c1ccc(C(F)(F)F)cc1 (stereo not drawn) [Example 28]
The melting point of the first is higher: 160 to 161 °C for the first, 120 to 123 °C for the second.

First: Cc1cccc(C(=O)Nc2ccc3c(c2)CC(N2CCN(C(=O)c4ccncc4)CC2)C3)c1-c1ccc(C(F)(F)F)cc1 (stereo not drawn) [Example 25]
Second: Cc1cccc(C(=O)Nc2ccc3c(c2)CC(N2CCN(C(=O)CO)CC2)C3)c1-c1ccc(C(F)(F)F)cc1 (stereo not drawn) [Example 30]
The melting point of the first is higher: 158 to 160 °C for the first, 86 to 88 °C for the second.

First: COC(=O)N1CCN(C2Cc3ccc(NC(=O)c4cccc(C)c4-c4ccc(F)cc4)cc3C2)CC1 (stereo not drawn) [Example 37]
Second: COC(=O)N1CCN(C2Cc3ccc(NC(=O)c4cccc(OC)c4-c4ccc(F)cc4)cc3C2)CC1 (stereo not drawn) [Example 13]
The melting point of the first is higher: 141 to 142 °C for the first, 132 to 134 °C for the second.

First: COC(=O)N1CCN(C2Cc3ccc(NC(=O)c4ccccc4-c4ccc(C)cc4)cc3C2)CC1 (stereo not drawn) [Example 41]
Second: COC(=O)N1CCN(C2Cc3ccc(NC(=O)c4ccccc4-c4ccc(C(F)(F)F)cc4)cc3C2)CC1 (stereo not drawn) [Example 6]
The melting point of the first is lower: 136 to 138 °C for the first, 204 to 206 °C for the second.

Compared with `COC(=O)N1CCN([C@@H]2Cc3ccc(NC(=O)c4cccc(C)c4-c4ccc(C(F)(F)F)cc4)cc3C2)CC1` [Example 14, (R)-6-Methyl-4′-trifluoromethyl-1,1′-biphenyl-N-[2-[4-(methoxycarbonyl)-piperazino]indan-5-yl]-2-carboxamide], `COCC(=O)N1CCN(C2Cc3ccc(NC(=O)c4cccc(C)c4-c4ccc(C(F)(F)F)cc4)cc3C2)CC1` (stereo not drawn) [Example 26] is lower in melting point: 163 to 164 °C for the first, 161 to 162 °C for the second.

Compared with `COC(=O)N1CCN(C2Cc3ccc(NC(=O)c4ccccc4-c4ccccc4)cc3C2)CC1` (stereo not drawn) [Example 39], `COC(=O)N1CCN(C2Cc3ccc(NC(=O)c4cccc(OC)c4-c4ccc(C(F)(F)F)cc4)cc3C2)CC1` (stereo not drawn) [Example 38] is higher in melting point: 164 to 168 °C for the first, 176 to 178 °C for the second.

Compared with `COC(=O)C1CCN(C2Cc3ccc(NC(=O)c4cccc(C)c4-c4ccc(C(F)(F)F)cc4)cc3C2)CC1` (stereo not drawn) [Example 9], `CCCC(=O)N1CCN(C2Cc3ccc(NC(=O)c4cccc(C)c4-c4ccc(C(F)(F)F)cc4)cc3C2)CC1` (stereo not drawn) [Example 21] is lower in melting point: 191 to 195 °C for the first, 173 to 176 °C for the second.

First: Cc1cccc(C(=O)Nc2ccc3c(c2)CC(N2CCC4(CC2)OCCO4)C3)c1-c1ccc(C(F)(F)F)cc1 (stereo not drawn) [Example 11]
Second: Cc1cccc(C(=O)Nc2ccc3c(c2)CC(N2CCN(c4ccccc4)CC2)C3)c1-c1ccc(C(F)(F)F)cc1 (stereo not drawn) [Example 2]
The melting point of the first is lower: 202 to 203 °C for the first, 236 to 238 °C for the second.

In the case of `O=C(Nc1ccc2c(c1)CC(N1CCOCC1)C2)c1ccccc1-c1ccc(C(F)(F)F)cc1` (stereo not drawn) [Example 8], the melting point is reported as 191 to 194 °C.

— patent US6878707B2, “Carboxamides useful as inhibitors of microsomal triglyceride transfer protein and of apolipoprotein b secretion” (Novartis AG, priority 2001, dated 2005)
